A value given as a limit tells only on which side of the number the result lay.

One may read the EC50 as the concentration needed to bring the measured effect to its halfway point.

The first test deals with Molt-4 human acute lymphoblastic leukemia cells. The experiment in a line: Molt-4 cellular assay (cell viability, MTS). It counts as cell-based. As to conditions: 10% human serum, 48 hours. As for the experimental part: Molt-4 (ATCC, Manassas, VA) human acute lymphoblastic leukemia cells were plated 50,000 cells per well in 96-well tissue culture plates in a total volume of 100 µL tissue culture medium supplemented with 10% human serum (Invitrogen, Carlsbad, CA) and treated with a 3-fold serial dilution of the compounds of interest from 5 µM to […]. Each concentration was tested in duplicate at least 3 separate times. The number of viable cells following 48 hours of compound treatment was determined using the CellTiter 96® Aqueous non-radioactive cell proliferation MTS assay according to manufacturer's recommendations (Promega Corp., Madison, WI).
Take `O=C(Nc1nc2ccccc2s1)c1cccc2c1CN(c1ccc(-c3cnn(CC45CC6CC(CC(C6)C4)C5)c3)c(C(=O)O)n1)CC2` [Example 1, 6-[8-(1,3-benzothiazol-2-ylcarbamoyl)-3,4-dihydroisoquinolin-2(1H)-yl]-3-{1-[tricyclo[3.3.1.1^3,7]dec-1-ylmethyl]-1H-pyrazol-4-yl}pyridine-2-carboxylic acid]: the EC50 amounted to 201 nM.

A further test concerns mouse FL5.12 cells transfected with Bcl-xL. The experiment in a line: FL5.12 cellular assay (cell viability, CellTiter-Glo). It counts as cell-based. As to conditions: IL-3-depleted, 3% FBS assay media, 24 hours, read-out: FL5.12 Bcl-xL, -IL3, EC50. As for the experimental part:
Cell viability was assayed using the CellTiter-Glo assay (Promega Corp., Madison, WI) according to the manufacturer instructions. Individual determinations were the result of duplicate values. […] Table 2. In Vitro Data
In general terms: In ATP-based viability assays light output follows the ATP content of the culture.
In the case of `O=C(Nc1nc2ccccc2s1)c1cccc2c1CN(c1ccc(-c3cnn(CC45CC6CC(CC(C6)C4)C5)c3)c(C(=O)O)n1)CC2` [Example 1, 6-[8-(1,3-benzothiazol-2-ylcarbamoyl)-3,4-dihydroisoquinolin-2(1H)-yl]-3-{1-[tricyclo[3.3.1.1^3,7]dec-1-ylmethyl]-1H-pyrazol-4-yl}pyridine-2-carboxylic acid], the EC50 was 39 nM.
Still for that read-out and setting: the same measure for `Cc1c(-c2ccc(N3CCc4cccc(C(=O)Nc5nc6ccccc6s5)c4C3)nc2C(=O)O)ccnc1N(C)C1CCCCCCC1` [Example 61, 6-[8-(1,3-benzothiazol-2-ylcarbamoyl)-3,4-dihydroisoquinolin-2(1H)-yl]-2'-[cyclooctyl(methyl)amino]-3'-methyl-3,4'-bipyridine-2-carboxylic acid]: 10 nM.
Take `Cc1c(-c2ccc(N3CCc4cccc(C(=O)Nc5nc6ccccc6s5)c4C3)nc2C(=O)O)cnn1CC1C2CC3CC(C2)CC1C3` (stereo not shown) [Example 62, 6-[8-(1,3-benzothiazol-2-ylcarbamoyl)-3,4-dihydroisoquinolin-2(1H)-yl]-3-[5-methyl-1-(tricyclo[3.3.1.1^3,7]dec-2-ylmethyl)-1H-pyrazol-4-yl]pyridine-2-carboxylic acid]: the EC50 amounted to 0.8 nM.
Same read-out and setting: the same measure for `COCCOCCOC12CC3CC(CC(Cn4ncc(-c5ccc(N6CCc7cccc(C(=O)Nc8nc9ccccc9s8)c7C6)nc5C(=O)O)c4C)(C3)C1)C2` [Example 63, 6-[8-(1,3-benzothiazol-2-ylcarbamoyl)-3,4-dihydroisoquinolin-2(1H)-yl]-3-[1-({3-[2-(2-methoxyethoxy)ethoxy]tricyclo[3.3.1.1^3,7]dec-1-yl}methyl)-5-methyl-1H-pyrazol-4-yl]pyridine-2-carboxylic acid]: 3 nM; for `Cc1c(C(=O)N(C)C2C3CC4CC(C3)CC2C4)cccc1-c1ccc(N2CCc3cccc(C(=O)Nc4nc5ccccc5s4)c3C2)nc1C(=O)O` (stereo not shown) [Example 64]: 26 nM.
`Cc1c(-c2ccc(N3CCc4cccc(C(=O)Nc5nc6ccccc6s5)c4C3)nc2C(=O)O)cnn1CC1(OCCS(C)(=O)=O)CCCCCCC1` [Example 65, 6-[8-(1,3-benzothiazol-2-ylcarbamoyl)-3,4-dihydroisoquinolin-2(1H)-yl]-3-[5-methyl-1-({1-[2-(methylsulfonyl)ethoxy]cyclooctyl}methyl)-1H-pyrazol-4-yl]pyridine-2-carboxylic acid]: the EC50 stood at 1 nM.
Same read-out and setting: the same measure for `Cc1c(-c2ccc(N3CCc4cccc(C(=O)Nc5nc6ccccc6s5)c4C3)nc2C(=O)O)nnn1CC12CC3CC(CC(C3)O1)C2` [Example 66, 6-[8-(1,3-benzothiazol-2-ylcarbamoyl)-3,4-dihydroisoquinolin-2(1H)-yl]-3-[5-methyl-1-(2-oxatricyclo[3.3.1.1^3,7]dec-1-ylmethyl)-1H-1,2,3-triazol-4-yl]pyridine-2-carboxylic acid]: 26 nM; for `Cc1c(-c2ccc(N3CCc4cccc(C(=O)Nc5nc6cccnc6s5)c4C3)nc2C(=O)O)cnn1CC12CC3CC(CC(C3)O1)C2` [Example 67, 3-[5-methyl-1-(2-oxatricyclo[3.3.1.1^3,7]dec-1-ylmethyl)-1H-pyrazol-4-yl]-6-[8-([1,3]thiazolo[5,4-b]pyridin-2-ylcarbamoyl)-3,4-dihydroisoquinolin-2(1H)-yl]pyridine-2-carboxylic acid]: 9 nM.
Same read-out and setting: with `Cc1c(-c2ccc(N3CCc4cccc(C(=O)Nc5nc6ccccc6s5)c4C3)nc2C(=O)O)cccc1N(C)C(=O)C12CC3CC(CC(C3)O1)C2` [Example 68, 6-[8-(1,3-benzothiazol-2-ylcarbamoyl)-3,4-dihydroisoquinolin-2(1H)-yl]-3-{2-methyl-3-[methyl(2-oxatricyclo[3.3.1.1^3,7]dec-1-ylcarbonyl)amino]phenyl}pyridine-2-carboxylic acid] the figure was 22 nM; with `Cc1c(-c2ccc(N3CCc4cccc(C(=O)Nc5nc6ccccc6s5)c4C3)nc2C(=O)O)cccc1S(=O)(=O)N(C)C1C2CC3CC(C2)CC1C3` (stereo not shown) [Example 69, 6-[8-(1,3-benzothiazol-2-ylcarbamoyl)-3,4-dihydroisoquinolin-2(1H)-yl]-3-(2-methyl-3-{methyl[tricyclo[3.3.1.1^3,7]dec-2-yl]sulfamoyl}phenyl)pyridine-2-carboxylic acid], 449 nM.
Same read-out and setting: the same measure for `Cc1c(-c2ccc(N3CCc4cccc(C(=O)Nc5nc6ccccc6s5)c4C3)nc2C(=O)O)ccnc1S(=O)(=O)C12CC3CC(CC(C3)C1)C2` [Example 70, 6-[8-(1,3-benzothiazol-2-ylcarbamoyl)-3,4-dihydroisoquinolin-2(1H)-yl]-3'-methyl-2'-(tricyclo[3.3.1.1^3,7]dec-1-ylsulfonyl)-3,4'-bipyridine-2-carboxylic acid]: 72 nM; for `Cc1c(-c2ccc(N3CCc4cccc(C(=O)Nc5nc6ccccc6s5)c4C3)nc2C(=O)O)cc(C#N)n1CC12CC3CC(CC(C3)O1)C2` [Example 71, 6-[8-(1,3-benzothiazol-2-ylcarbamoyl)-3,4-dihydroisoquinolin-2(1H)-yl]-3-[5-cyano-2-methyl-1-(2-oxatricyclo[3.3.1.1^3,7]dec-1-ylmethyl)-1H-pyrrol-3-yl]pyridine-2-carboxylic acid]: 1 nM.
As for `Cc1c(-c2ccc(N3CCc4cccc(C(=O)Nc5nc6ccccc6s5)c4C3)nc2C(=O)O)ccnc1SC12CC3CC(CC(C3)C1)C2` [Example 74, 6-[8-(1,3-benzothiazol-2-ylcarbamoyl)-3,4-dihydroisoquinolin-2(1H)-yl]-3'-methyl-2'-(tricyclo[3.3.1.1^3,7]dec-1-ylsulfanyl)-3,4'-bipyridine-2-carboxylic acid], the EC50 was 7 nM.
The same measure, in the same setting: the same measure for `Cc1c(-c2ccc(N3CCc4cccc(C(=O)Nc5nc6cccnc6s5)c4C3)nc2C(=O)NS(C)(=O)=O)cnn1CC12CC3CC(CC(C3)C1)C2` [Example 75, 2-{6-[(methylsulfonyl)carbamoyl]-5-[5-methyl-1-(tricyclo[3.3.1.1^3,7]dec-1-ylmethyl)-1H-pyrazol-4-yl]pyridin-2-yl}-N-([1,3]thiazolo[5,4-b]pyridin-2-yl)-1,2,3,4-tetrahydroisoquinoline-8-carboxamide]: 3 nM; for `Cc1c(-c2ccc(N3CCc4cccc(C(=O)Nc5nc6ccccc6s5)c4C3)nc2C(=O)O)ccnc1NC12CC3CC(CC(C3)C1)C2` [Example 76, 6-[8-(1,3-benzothiazol-2-ylcarbamoyl)-3,4-dihydroisoquinolin-2(1H)-yl]-3'-methyl-2'-(tricyclo[3.3.1.1^3,7]dec-1-ylamino)-3,4'-bipyridine-2-carboxylic acid]: 71 nM.
As for `Cc1c(-c2ccc(N3CCc4cccc(C(=O)Nc5cn6ncccc6n5)c4C3)nc2C(=O)O)cnn1CC12CC3CC(CC(C3)C1)C2` [Example 77, 6-[8-(imidazo[1,2-b]pyridazin-2-ylcarbamoyl)-3,4-dihydroisoquinolin-2(1H)-yl]-3-[5-methyl-1-(tricyclo[3.3.1.1^3,7]dec-1-ylmethyl)-1H-pyrazol-4-yl]pyridine-2-carboxylic acid], the EC50 came out at 4 nM.
Turning to `Cc1c(-c2ccc(N3CCc4cccc(C(=O)Nc5nc6ccncc6s5)c4C3)nc2C(=O)O)cnn1CC12CC3CC(CC(C3)C1)C2` [Example 78, 3-[5-methyl-1-(tricyclo[3.3.1.1^3,7]dec-1-ylmethyl)-1H-pyrazol-4-yl]-6-[8-([1,3]thiazolo[5,4-c]pyridin-2-ylcarbamoyl)-3,4-dihydroisoquinolin-2(1H)-yl]pyridine-2-carboxylic acid], the EC50 stood at 3 nM.
Still for that read-out and setting: with `COC1(Cn2ncc(-c3ccc(N4CCc5cccc(C(=O)Nc6nc7ccccc7s6)c5C4)nc3C(=O)O)c2C)CCCC2(CC2)C1` (stereo not shown) [Example 79, 6-[8-(1,3-benzothiazol-2-ylcarbamoyl)-3,4-dihydroisoquinolin-2(1H)-yl]-3-{1-[(5-methoxyspiro[2.5]oct-5-yl)methyl]-5-methyl-1H-pyrazol-4-yl}pyridine-2-carboxylic acid] the figure was 0.9 nM; with `COCCOCCOCCOC12CC3CC(CC(Cn4ncc(-c5ccc(N6CCc7cccc(C(=O)Nc8nc9ccccc9s8)c7C6)nc5C(=O)O)c4C)(C3)C1)C2` [Example 80, 6-[8-(1,3-benzothiazol-2-ylcarbamoyl)-3,4-dihydroisoquinolin-2(1H)-yl]-3-(1-{[3-{2-[2-(2-methoxyethoxy)ethoxy]ethoxy}tricyclo[3.3.1.1^3,7]dec-1-yl]methyl}-5-methyl-1H-pyrazol-4-yl)pyridine-2-carboxylic acid], 1 nM.
Same read-out and setting: the same measure for `O=C(Nc1nc2ccccc2s1)c1cccc2c1CN(c1ccc(-c3cnn(CC4CC5CCC(C4)N5C(=O)OCc4ccccc4)c3)c(C(=O)O)n1)CC2` (stereo not shown) [Example 84, 6-[8-(1,3-benzothiazol-2-ylcarbamoyl)-3,4-dihydroisoquinolin-2(1H)-yl]-3-[1-({8-[(benzyloxy)carbonyl]-8-azabicyclo[3.2.1]oct-3-yl}methyl)-1H-pyrazol-4-yl]pyridine-2-carboxylic acid]: over 1000 nM; for `O=C(Nc1nc2ccccc2s1)c1cccc2c1CN(c1ccc(-c3ccc(=O)n(CC45CC6CC(CC(C6)C4)C5)c3)c(C(=O)O)n1)CC2` [Example 85, 6-[8-(1,3-benzothiazol-2-ylcarbamoyl)-3,4-dihydroisoquinolin-2(1H)-yl]-6'-oxo-1'-(tricyclo[3.3.1.1^3,7]dec-1-ylmethyl)-1',6'-dihydro-3,3'-bipyridine-2-carboxylic acid]: 111 nM.

Source of the values: EP2766361B1, “8-CARBAMOYL-2-(2,3-DISUBSTITUTED PYRID-6-YL)-1,2,3,4-TETRAHYDROISOQUINOLINE DERIVATIVES AS APOPTOSIS-INDUCING AGENTS FOR THE TREATMENT OF CANCER AND IMMUNE AND AUTOIMMUNE DISEASES” (priority 2011, dated 2013).
